Data from patent US6914045B2, “Glycopeptide antibiotics” (Wyeth Holdings Corporation, priority 2001, dated 2005).
Converted amounts (≈) assume the structure as drawn.

Experiments:
Assay in all cases: in vitro antibacterial evaluation, MIC by broth dilution
Format in all cases: cell-based
Enterococcus sp. = settings: broth dilution, 18 hours at 35° C.
Summary of the method: (§1)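 Broth dilution per NCCLS standard M7-A2 in Muller-Hinton II […], with an inoculum of 5×10^5 CFU/mL and antibiotic spanning 64-0.06 μg/mL. The MIC is the lowest concentration that inhibits growth of the organism.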

Escherichia coli = settings: 18 hours at 35° C.
Summary of the method: as §1

Staphylococcus sp. = settings: broth dilution, 18 hours at 35° C.
Summary of the method: as §1

Streptococcus sp. = settings: broth dilution, 18 hours at 35° C.
Summary of the method: as §1

MIC Enterococcus avium (GC 4558) (Enterococcus sp.; Enterococcus avium (GC 4558)): 64 µg/mL (≈ 46.2 µM)
MIC Enterococcus faecalis (ATCC 29212) (Enterococcus sp.; Enterococcus faecalis (ATCC 29212)): 64 µg/mL (≈ 46.2 µM)
MIC Enterococcus faecalis (GC 4553) (Enterococcus sp.; Enterococcus faecalis (GC 4553)): >64 µg/mL
MIC Enterococcus faecalis (GC 4554) (Enterococcus sp.; Enterococcus faecalis (GC 4554)): >64 µg/mL
MIC Enterococcus faecium (GC 2243) (Enterococcus sp.; Enterococcus faecium (GC 2243)): >64 µg/mL
MIC Enterococcus faecium (GC 4556) (Enterococcus sp.; Enterococcus faecium (GC 4556)): 64 µg/mL (≈ 46.2 µM)
MIC Enterococcus faecium (GC 4557) (Enterococcus sp.; Enterococcus faecium (GC 4557)): 8 µg/mL (≈ 5.77 µM)
MIC Enterococcus faecalis (ATCC 29212) (Enterococcus sp.; strain ATCC 29212): 64 µg/mL (≈ 46.2 µM)
MIC Enterococcus faecalis (GC 2242) (Enterococcus sp.; strain GC 2242): 64 µg/mL (≈ 46.2 µM)
MIC Enterococcus faecium (GC 2243) (Enterococcus sp.; strain GC 2243): >64 µg/mL
MIC Enterococcus faecalis (GC 4552) (Enterococcus sp.; strain GC 4552): >64 µg/mL
MIC Enterococcus faecalis (GC 4553) (Enterococcus sp.; strain GC 4553): >64 µg/mL
MIC Enterococcus faecalis (GC 4554) (Enterococcus sp.; strain GC 4554): >64 µg/mL
MIC Enterococcus faecium (GC 4556) (Enterococcus sp.; strain GC 4556): 64 µg/mL (≈ 46.2 µM)
MIC Enterococcus faecium (GC 4557) (Enterococcus sp.; strain GC 4557): 8 µg/mL (≈ 5.77 µM)
MIC Enterococcus avium (GC 4558) (Enterococcus sp.; strain GC 4558): 64 µg/mL (≈ 46.2 µM)
MIC Escherichia coli (ATCC 25922) (Escherichia coli; Escherichia coli (ATCC 25922)): >64 µg/mL
MIC Escherichia coli (GC 4559) (Escherichia coli; Escherichia coli (GC 4559)): >64 µg/mL
MIC Escherichia coli (GC 4560) (Escherichia coli; Escherichia coli (GC 4560)): 4 µg/mL (≈ 2.89 µM)
MIC Coagulase Negative Staphylococcus (GC 4547) (Staphylococcus sp.): 8 µg/mL (≈ 5.77 µM)
MIC Coagulase Negative Staphylococcus (GC 4548) (Staphylococcus sp.): 8 µg/mL (≈ 5.77 µM)
MIC Coagulase Negative Staphylococcus (GC 4549) (Staphylococcus sp.): 4 µg/mL (≈ 2.89 µM)
MIC Coagulase Negative Staphylococcus (GC 4551) (Staphylococcus sp.): 8 µg/mL (≈ 5.77 µM)
MIC Staphylococcus aureus (ATCC 29213) (Staphylococcus sp.): 16 µg/mL (≈ 11.5 µM)
MIC Staphylococcus aureus (GC 1131) (Staphylococcus sp.): 32 µg/mL (≈ 23.1 µM)
MIC Staphylococcus aureus (GC 4541) (Staphylococcus sp.): 16 µg/mL (≈ 11.5 µM)
MIC Staphylococcus aureus (GC 4542) (Staphylococcus sp.): 16 µg/mL (≈ 11.5 µM)
MIC Staphylococcus aureus (GC 4544) (Staphylococcus sp.): 8 µg/mL (≈ 5.77 µM)
MIC Staphylococcus aureus (GC 4545) (Staphylococcus sp.): 16 µg/mL (≈ 11.5 µM)
MIC Staphylococcus aureus-SMITH (GC 4543) (Staphylococcus sp.): 8 µg/mL (≈ 5.77 µM)
MIC Staphylococcus aureus (ATCC 29213) (Staphylococcus sp.; strain ATCC 29213): 16 µg/mL (≈ 11.5 µM)
MIC Staphylococcus aureus (GC 1131) (Staphylococcus sp.; strain GC 1131): 32 µg/mL (≈ 23.1 µM)
MIC Staphylococcus aureus (GC 4541) (Staphylococcus sp.; strain GC 4541): 16 µg/mL (≈ 11.5 µM)
MIC Staphylococcus aureus (GC 4542) (Staphylococcus sp.; strain GC 4542): 16 µg/mL (≈ 11.5 µM)
MIC Staphylococcus aureus (GC 4544) (Staphylococcus sp.; strain GC 4544): 8 µg/mL (≈ 5.77 µM)
MIC Staphylococcus aureus (GC 4545) (Staphylococcus sp.; strain GC 4545): 16 µg/mL (≈ 11.5 µM)
MIC Coagulase Negative Staphylococcus (GC 4547) (Staphylococcus sp.; strain GC 4547): 8 µg/mL (≈ 5.77 µM)
MIC Coagulase Negative Staphylococcus (GC 4548) (Staphylococcus sp.; strain GC 4548): 8 µg/mL (≈ 5.77 µM)
MIC Coagulase Negative Staphylococcus (GC 4549) (Staphylococcus sp.; strain GC 4549): 4 µg/mL (≈ 2.89 µM)
MIC Coagulase Negative Staphylococcus (GC 4551) (Staphylococcus sp.; strain GC 4551): 8 µg/mL (≈ 5.77 µM)
MIC Staphylococcus aureus-SMITH (GC 4543) (Staphylococcus sp.; strain SMITH GC 4543): 8 µg/mL (≈ 5.77 µM)
MIC Streptococcus agalactiae (GC 4564) (Streptococcus sp.; strain GC 4564): 4 µg/mL (≈ 2.89 µM)
MIC Streptococcus pyogenes (ID-3187) (Streptococcus sp.; strain ID-3187): 4 µg/mL (≈ 2.89 µM)
Compound: CC(C)CC(=O)OC1C(OC2C(CO)OC(Oc3ccc(CC4NC(=O)C(C(C)c5cccs5)NC(=O)CNC(=O)C(CO)NC(=O)C(C(O)C5CNC(=N)N5C5OC(CO)C(O)C(O)C5O)NC(=O)C(C(O)C5CNC(=N)N5)NC4=O)cc3)C(O)C2O)OC(CO)C(O)C1O (stereo not drawn) [Example 265a, Cyclo[3-(2-thienyl)-2-aminobutanoyl-O-[4-O-[2-O-(3-methylbutanoyl)hexopyranosyl]hexopyranosyl]tyrosyl-3-(2-iminoimidazolidin-4-yl)seryl-3-(3-hexopyranosyl-2-iminoimidazolidin-4-yl)serylserylglycyl]]
MIC Staphylococcus haemolyticus (GC 4546) (Staphylococcus sp.): 8 µg/mL (≈ 5.77 µM)
MIC Staphylococcus haemolyticus (GC 4546) (Staphylococcus sp.; strain GC 4546): 8 µg/mL (≈ 5.77 µM)
